What was measured:
trigeminal neurons [1] = assay: Fluo-3 calcium imaging of cultured mouse trigeminal neurons
Experimental: Calcium imaging was performed with a confocal microscope (LSM5 Pascal, Carl Zeiss, Germany), and time-lapse images (488 nm excitation/514 nm emission) were collected every 3 seconds using Carl Zeiss ratio tool software (Carl Zeiss, Germany).

TRPM8 = target: T1, TRPM8 (Mus musculus, UniProt Q8R4D5); assay: Calcium imaging of TRP transfected cell lines treated with acetaldehyde (TRPM8); type: cell-based; conditions: 1 mM acetaldehyde
T1 construct: expressed in transfected cells; host or cells: HEK293T (ATCC CRL-11268), pcDNA5/FRT
From the text: (§1) HEK293T cell line (ATCC CRL-11268) was transiently transfected with plasmid DNA containing polynucleotide encoding hTRPA1 (SEQ. ID. NO: 1), rTRPV2 (SEQ. ID. NO: 2), rTRPV1 (SEQ. ID. NO: 3), mTRPV4 (SEQ. ID. NO: 4), mTRPA1 (SEQ. ID. NO: 5), hTRPV3 (SEQ. ID. NO: 6) or mTRPM8 (SEQ. ID. NO: 7).
(§2) Particularly, the HEK293T cell line was transiently transfected with individual TRP channel plasmid (pcDNA3.1 containing polynucleotide encoding hTRPA1, rTRPV2, rTRPV1 or mTRPV4; pcDNA5/FRT containing polynucleotide encoding mTRPA1, hTRPV3 or mTRPM8) 3 μg per 35-mm dish and 600 ng/well of pcDNA3 (Invitrogen Corp., USA; containing green fluorescent protein (GFP) cDNA) using Fugene6 (Roche Diagnostics, USA) according to manufacturer's instruction. The transformed cells were cultured in DMEM/F12 containing 10% FBS and 1% penicillin/streptomycin in a CO2 incubator for 24 hours. The cells were replated onto poly-L-lysine-coated glass coverslips, followed by further culture for 10-24 hours.
(§3) Particularly, the transfected cell line of Example <4-1> was loaded with Fluo-3AM (5 μM; Sigma Aldrich, USA) in the bath solution (140 mM NaCl, 5 mM KCl, 2 mM CaCl2, 1 mM MgCl2, 10 mM HEPES; adjusted to pH 7.4 with NaOH) containing 0.02% pluronic acid (Invitrogen, USA). […]

TRPV2 = target: T2, TRPV2 (Rattus norvegicus, UniProt Q9WUD2, A713V/L151P/T158I); assay: Calcium imaging of TRP transfected cell lines treated with acetaldehyde (TRPV2); type: cell-based; conditions: 1 mM acetaldehyde
T2 construct: expressed in transfected cells; host or cells: HEK293T (ATCC CRL-11268), pcDNA3.1
T2 sequence (Q9WUD2 1-761 L151P/T158I/A713V): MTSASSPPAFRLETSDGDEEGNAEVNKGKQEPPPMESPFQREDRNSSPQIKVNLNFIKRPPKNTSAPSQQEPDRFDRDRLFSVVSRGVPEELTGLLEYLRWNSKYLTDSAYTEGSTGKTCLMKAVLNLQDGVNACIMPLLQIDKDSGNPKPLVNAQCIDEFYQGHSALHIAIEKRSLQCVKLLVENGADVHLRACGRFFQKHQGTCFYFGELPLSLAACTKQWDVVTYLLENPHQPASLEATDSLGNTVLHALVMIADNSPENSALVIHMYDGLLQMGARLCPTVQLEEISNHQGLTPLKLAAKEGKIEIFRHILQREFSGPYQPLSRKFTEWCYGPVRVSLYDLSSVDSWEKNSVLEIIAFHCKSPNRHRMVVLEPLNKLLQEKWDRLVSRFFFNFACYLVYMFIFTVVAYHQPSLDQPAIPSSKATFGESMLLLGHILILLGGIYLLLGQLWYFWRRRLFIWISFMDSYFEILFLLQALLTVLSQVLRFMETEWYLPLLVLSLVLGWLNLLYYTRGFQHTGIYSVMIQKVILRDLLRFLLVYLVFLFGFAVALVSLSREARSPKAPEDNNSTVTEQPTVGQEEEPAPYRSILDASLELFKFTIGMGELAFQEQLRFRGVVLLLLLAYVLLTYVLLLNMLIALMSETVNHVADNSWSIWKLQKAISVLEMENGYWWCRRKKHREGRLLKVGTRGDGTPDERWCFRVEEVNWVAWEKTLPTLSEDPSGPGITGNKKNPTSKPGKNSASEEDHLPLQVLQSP
From the text: as §1, §2, §3

TRPA1 = assay: Whole-cell voltage-clamp recording of TRPA1 transfected cell line; type: cell-based; conditions: 1 mM acetaldehyde, 300 μM cinnamaldehyde, voltage ramp -80 to +80 mV, n=5
Experimental: as §2
Stock solutions were made using water or ethanol, and were diluted with test solutions before use.
This experiment was repeated 5 times.

trigeminal neurons [2] = assay: Whole-cell voltage-clamp recording of cultured trigeminal neurons; type: cell-based, mouse; conditions: 1 mM acetaldehyde, n=6
Experimental: Trigeminal ganglia were dissected out of decapitated adult ICR mice in cold PBS and treated with 1.5 mg/Ml of collagenase/dispase (Roche Diagnostics, USA) at 37 °C for 45 min, and then treated with 0.25% trypsin (Invitrogen, USA) for 15 min. The trigeminal neurons prepared thereby were then plated onto poly-L-lysine-coated coverslips in DMEM/F12 containing 10% FBS, 1% penicillin/streptomycin and 5 ng/Ml of 2.5S NGF (Invitrogen, USA), nerve growth factor (Invitrogen), followed by culture in a CO2 incubator for 48-72 hours.
Particularly, the extracellular solution (140 mM NaCl, 5 mM KCl, 2 mM CaCl2, 1 mM MgCl2, 10 mM HEPES; titrated to pH 7.4 with NaOH) and the pipette solution (140 mM CsCl, 5 mM EGTA, 10 mM HEPES, 2.0 mM MgATP, 0.2 mM NaGTP; titrated to pH 7.2 with CsOH) were used. The potential was holded at −60 mV for 250 ms, voltage-ramp pulsed from −80 mV to +80 mV for […] and returned to −60 mV for 250 ms, which was repeated without intersweep. This experiment was repeated 5 times.
The trigeminal neurons prepared by the same manner as described in Example 2 were delayed-treated with 1 mM acetaldehyde, followed by treatment of 20 μM GdCl3 (a TRPA1 blocker gadolinium; Sigma-Aldrich, USA) and 2 mM camphor. Then, whole-cell voltage-clamp recording was performed by the same manner as described in Example <5-2>.

T1 sequence (Q8R4D5 whole entry): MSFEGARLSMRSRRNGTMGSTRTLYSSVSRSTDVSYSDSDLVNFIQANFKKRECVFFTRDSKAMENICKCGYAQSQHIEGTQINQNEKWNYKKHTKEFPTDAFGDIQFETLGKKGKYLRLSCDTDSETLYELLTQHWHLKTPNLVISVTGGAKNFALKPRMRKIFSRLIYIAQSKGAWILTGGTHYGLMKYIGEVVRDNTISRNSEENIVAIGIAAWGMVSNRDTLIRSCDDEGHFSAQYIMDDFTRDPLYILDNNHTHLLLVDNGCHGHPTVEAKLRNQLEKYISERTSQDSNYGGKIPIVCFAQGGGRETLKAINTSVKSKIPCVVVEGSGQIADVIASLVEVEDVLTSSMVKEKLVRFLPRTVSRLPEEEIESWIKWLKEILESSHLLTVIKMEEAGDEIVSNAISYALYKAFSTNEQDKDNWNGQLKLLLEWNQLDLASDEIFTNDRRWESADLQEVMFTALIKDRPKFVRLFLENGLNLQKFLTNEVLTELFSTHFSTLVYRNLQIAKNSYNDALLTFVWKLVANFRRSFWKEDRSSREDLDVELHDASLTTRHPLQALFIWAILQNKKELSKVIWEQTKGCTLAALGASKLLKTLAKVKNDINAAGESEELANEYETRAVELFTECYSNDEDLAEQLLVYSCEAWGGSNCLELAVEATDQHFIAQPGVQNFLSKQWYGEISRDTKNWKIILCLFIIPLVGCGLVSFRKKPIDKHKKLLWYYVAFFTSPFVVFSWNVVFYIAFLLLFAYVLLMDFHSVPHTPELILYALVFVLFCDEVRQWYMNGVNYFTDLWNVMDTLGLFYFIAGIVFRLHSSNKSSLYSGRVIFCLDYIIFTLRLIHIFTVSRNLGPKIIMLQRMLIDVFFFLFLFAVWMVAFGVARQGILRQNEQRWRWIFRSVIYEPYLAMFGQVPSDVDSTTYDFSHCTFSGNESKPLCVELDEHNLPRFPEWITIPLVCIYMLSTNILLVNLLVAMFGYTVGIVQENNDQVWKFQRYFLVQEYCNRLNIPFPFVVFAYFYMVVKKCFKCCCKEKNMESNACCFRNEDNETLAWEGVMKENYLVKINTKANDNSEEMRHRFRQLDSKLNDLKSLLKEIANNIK

## CC=O [acetaldehyde]
Trigeminal neurons [1]; 1 mM acetaldehyde, n=19
  acetaldehyde response of capsaicin-cinnamaldehyde-positive neurons: did response
Trigeminal neurons [1]; 1 mM acetaldehyde, n=36, considered to express TRPM8
  acetaldehyde response of menthol-positive neurons: did not show response
Trigeminal neurons [1]; 1 mM acetaldehyde, n=102, considered to express TRPV1
  acetaldehyde response of capsaicin-positive/cinnamaldehyde-negative neurons: did not show response
Trigeminal neurons [1]; Mus musculus, Neuron, read-out: EC50 of acetaldehyde alone (Kd of dose-response curve) in trigeminal neurons
  EC50: 740 µM
Trigeminal neurons [1]; acetaldehyde + 1 μM PGE2
  maximum efficacy heightened with PGE2 versus acetaldehyde alone: 1.2 fold
TRPM8
  activation of TRPM8 by acetaldehyde: only TRPA1 was activated
TRPV2
  activation of TRPV2 by acetaldehyde: only TRPA1 was activated
TRPA1
  whole-cell current response in TRPA1 expressing cells: pronounced outwardly rectifying current occurred
Trigeminal neurons [2]
  current increase in trigeminal neurons: increased current

— patent publication US7960130B2, “Method for activation of transient receptor potential cation channel, subfamily A, member 1 using acetaldehyde” (Korea University Industry and Academy Cooperation Foundation, priority 2008, dated 2011)
